Values quoted from earlier work in article PMC5354290 (PLoS ONE, 2017).

Assays:
[1] = tested on: rat model of formalin-induced pain; conditions: in vivo, iv
[2] = tested on: rat model of spared nerve injury; conditions: in vivo, iv

| Compound | effective dose, times lower than those usually required for analgesia [1] | effective dose, times lower than those usually required for analgesia [2] | inhibition (in words) (rat NaV1.2) | inhibition (in words) (rNaV1.3) | inhibition (in words) (rNaV1.4) | inhibition (in words) (rNaV1.5) |
| --- | --- | --- | --- | --- | --- | --- |
| CN1CC[C@]23c4c5ccc(O)c4O[C@H]2[C@@H](O)C=C[C@H]3[C@H]1C5 [morphine] | at least 20 times | at least 20 times |  |  |  |  |
| Huwentoxin-IV [HwTx-IV] |  |  | inhibits | inhibits | far less potent | far less potent |
